Patent US20130040998A1, “FLUORINATED HDAC INHIBITORS AND USES THEREOF” (Dana-Farber Cancer Institute, Inc., priority 2010, published 2013)

Tests used:
[1] = system: HDAC1-3; assay: HDAC inhibition assay, HDAC1-3; format: biochemical, human; conditions: fluorinated MAZ1702 versus MAZ1704
Description: (§1) The inventive compounds may be tested in any assay for HDAC inhibitor activity. In certain embodiments, the assay for determining the inhibitory effect of an inventive compound on an HDAC protein comprising: incubating the HDAC protein with a substrate of formula: […]
(§2) in the presence of an inventive compound; and determining the activity of the HDAC protein by monitoring the release of 7-amino-4-methylcoumarin after cleavage by trypsin.
(§3) In certain embodiments, the assay is performed in water. In other embodiments, the assay is performed in an organic solvent. In still other embodiments, the assay in performed in a buffer. In certain embodiments, the buffer is an assay buffer. In other embodiments, the assay buffer comprises HEPES, KCl, Tween-20, BSA, and TCEP. In further embodiments, the assay buffer is […] HEPES, 100 mM KCl, 0.001% Tween-20, 0.05% BSA, 200 µM TCEP, pH 7.4. In certain embodiments, the assay is performed at approximately pH 5.0-6.0. In certain embodiments, the assay is performed at approximately pH 5.0-9.0. In certain embodiments, the assay is performed at a pH optimum for an HDAC enzyme to function.

[2] = system: class IIa HDACs (HDAC4, HDAC5, HDAC7, HDAC9); assay: HDAC inhibition assay, class IIa HDAC enzymes; format: biochemical, human
Description: as §1, §2, §3

[3] = difference versus unsubstituted cinnamic hydroxamic acid; Dessolin et al. 1970; cited from earlier work

affinity for class IIa HDAC enzymes compared to MAZ1704 ([2]; FIG. 2 legend, in words) | binds fold better to class IIa enzymes ([2]; fluorinated MAZ1702 versus MAZ1704 (FIG. 2)) | fold increase in activity for class IIa enzymes ([2]; direct comparison with cinnamic hydroxamic acid) | Compound | fold increase in activity for HDAC1-3 [1] | pKa, units lower than unsubstituted cinammic hydroxamic acid [3]
significantly increased affinity | 3.5-5 fold |  | O=C(NO)/C(F)=C/c1ccccc1 [MAZ1702] | 1-1.4 fold | 
 |  | 5-10 fold | O=C(NO)C(F)=Cc1ccccc1 [α-fluoro cinnamic hydroxamic acid] |  | approximately 0.9 units
